These results are taken from patent US7772245B2, “Inhibitors of histone deacetylase” (Miikana Therapeutics, Inc., priority 2005, dated 2010).

Assay [1] deals with HDAC. Put plainly: In vitro fluorescent histone deacetylase assay (Biomol HDAC fluorescent activity kit, HeLa cell nuclear extract). Type of assay: biochemical. The note with it: 100 μM compound; HeLa cell nuclear extract as source of HDAC activity; 50 μM substrate, 10 min at room temperature. As to the method:
Histone deacetylase (HDAC) activity assays were performed using the HDAC fluorescent activity assay/drug discovery kit (Biomol Research Laboratories, Plymouth Meeting, Pa.) essentially according to the manufacturer's instructions. The included HeLa cell nuclear extract, which contains a mosaic of HDAC enzymes and other nuclear factors, was used as the source of HDAC activity. The final substrate concentration in the assay mixture was 50 μM. The reaction was allowed to proceed for 10 min at room temperature before stopping the reaction. Test compounds were prepared as 20 mM stock solutions in DMSO (Molecular Biology grade, Sigma-Aldrich Co., St. Louis, Mo.) and stored at −70° C. Serial dilutions of test compounds were prepared in assay buffer immediately prior to testing. DMSO was determined in a separate trial to have no significant effect on the activity of this assay at concentrations up to 5%; the final DMSO concentration in the wells was no more than 2% and therefore DMSO effects were safely neglected. Assays were performed in white polystyrene 96-well half-area assay plates (Corning, Corning, N.Y.) and measured on a Wallace 1420 fluorescent plate reader (Wallac Oy, Turku, Finland) with an excitation wavelength of 355 nm, an emission wavelength of 460 nm, and a 1 sec signal averaging time.

In assay [2] the test system is HCT116 cells. Put plainly: Whole cell cytotoxicity assay: Sulforhodamine B. The format is cell-based. The settings on record: Homo sapiens, HCT-116; 100 μM compound; 48 hours incubation with drug; Sulforhodamine B staining; read-out: % Inhibition of HCT116 cell growth @ 100 μM. As to the method:
[The source words this procedure for another cell line and reports this cell line under the same test.] The following procedure can be found on the Developmental Therapeutics Program NCl/NIH web site at http://dtp.nci.nih.gov/brancehes/btb/ivclsp.html. • 1. Human tumor cell lines of HT29, A549 and MCF7 are grown in DMEM containing 10% fetal bovine serum and 2 mM L-glutamine. Cells are plated in a 96 well plate at a density of 5000 cells per well in 100 μL of growth medium and incubated at 37° C., 5% CO2, for 24 hours prior to the addition of experimental compounds. • 2. Experimental drugs are solubilized in DMSO for a final concentration of 20 mM immediately prior to use. Drugs are further diluted in growth media for a total of nine drug concentrations and a growth control. At the 24 hour time point, one plate of cells is fixed in situ with TCA as a measurement of the cell population at time zero, or the time of drug addition. • 3. The plates are further incubated with drug for an additional 48 hours. • 4. The cells are fixed in situ by gently aspirating off the culture media and then adding 50 μL of ice cold 10% TCA per well and incubated at 4° C. for 60 minutes. The plates are washed with tap water five times and allowed to air dry for 5 minute. • 5. 50 μL of a 0.4% (w/v) Sulforhodamine B solution in 1% (v/v) acetic acid is added per well and incubated for 30 minutes at room temperature. • 6. Following staining, plates are washed five times with 1% acetic acid to remove any unbound dye and then allowed to air dry for 5 minutes. • 7. Stain is solubilized with 100 μL of 10 mM Tris pH 10.5 per well and placed on an orbital rotator for 5 minutes. • 8. Absorbance is read at 570 nm.

Turning to `O=C(/C=C/c1ccc(CN2CCc3c([nH]c4ccccc34)C2)s1)NO` [Example 3, (2E)-N-hydroxy-3-[5-(1,3,4,9-tetrahydro-2H-b-carbolin-2-ylmethyl)thien-2-yl]acrylamide], in assay [1], the “% Inhibition of HDAC @ 100 μM” value stood at 97.9%. Further, the inhibition at 100 µM in assay [2] is 98.3%. On to `O=C(NO)c1ccc(N2CCc3c([nH]c4ccccc34)C2)nc1` [Example 4, N-hydroxy-6-(1,3,4,9-tetrahydro-2H-b-carbolin-2-yl)nicotinamide], for which the inhibition at 100 µM in assay [2] is 98.5%.

Take `COc1cc2c(cc1OC)CN(c1ccc(C(=O)NO)cn1)CC2` [Example 5, 6-(6,7-dimethoxy-3,4-dihydroisoquinolin-2(1H)-yl)-N-hydroxynicotinamide]: in assay [1], the “% Inhibition of HDAC @ 100 μM” value was 99.7%. Moreover, the inhibition at 100 µM in assay [2] turned out to be 99.9%. On the same counts, the results for `O=C(NO)c1cnc(N2CCc3c([nH]c4ccccc34)C2)nc1` [Example 9, N-hydroxy-2-(1,3,4,9-tetrahydro-2H-b-carbolin-2-yl)pyrimidine-5-carboxamide] are 99.9% and 99.3%. On the same counts, the results for `COc1ccc2[nH]c3c(c2c1)CCN(c1ncc(C(=O)NO)cn1)C3` [Example 10, N-hydroxy-2-(6-methoxy-1,3,4,9-tetrahydro-2H-b-carbolin-2-yl)pyrimidine-5-carboxamide] are 99.5% and 98.4%. On the same counts, the results for `COc1cc2c(cc1OC)CN(c1ncc(C(=O)NO)cn1)CC2` [Example 11, 2-(6,7-dimethoxy-3,4-dihydroisoquinolin-2(1H)-yl)-N-hydroxypyrimidine-5-carboxamide] are 99.8% and 99%. In the case of `O=C(NO)c1cnc(N2CCc3[nH]c4ccccc4c3C2)nc1` [Example 12, N-hydroxy-2-(1,3,4,5-tetrahydro-2H-pyrido[4,3-b]indol-2-yl)pyrimidine-5-carboxamide], the “% Inhibition of HDAC @ 100 μM” value in assay [1] turned out to be 99.9%. The inhibition at 100 µM in assay [2] came out at 98.7%.

For `Cc1ccc2[nH]c3c(c2c1)CN(c1ncc(C(=O)NO)cn1)CC3` [Example 13, N-hydroxy-2-(8-methyl-1,3,4,5-tetrahydro-2H-pyrido[4,3-b]indol-2-yl)pyrimidine-5-carboxamide], the “% Inhibition of HDAC @ 100 μM” value in assay [1] is reported as 99.9%. For the same compound, in assay [2], the inhibition at 100 µM was found to be 99.1%. On the same counts, the results for `O=C(NO)c1cnc(N2CCc3[nH]c4ccc(Cl)cc4c3C2)nc1` [Example 14, 2-(8-chloro-1,3,4,5-tetrahydro-2H-pyrido[4,3-b]indol-2-yl)-N-hydroxypyrimidine-5-carboxamide] are 99.9% and 98.1%. For `O=C(NO)c1cnc(N2CCc3[nH]c4ccc(Br)cc4c3C2)nc1` [Example 15, 2-(8-bromo-1,3,4,5-tetrahydro-2H-pyrido[4,3-b]indol-2-yl)-N-hydroxypyrimidine-5-carboxamide], in that order: 99.8% and 99%. On the same counts, the results for `O=C(NO)c1cnc(N2CCc3[nH]c4ccc(OC(F)(F)F)cc4c3C2)nc1` [Example 16, N-hydroxy-2-[8-(trifluoromethoxy)-1,3,4,5-tetrahydro-2H-pyrido[4,3-b]indol-2-yl]pyrimidine-5-carboxamide] are 98.9% and 99%.

As to `O=C(NO)c1ccc(N2CCc3c([nH]c4ccccc34)C2)cc1` [Example 18, N-hydroxy-4-(1,3,4,9-tetrahydro-2H-b-carbolin-2-yl)benzamide], the inhibition at 100 µM in assay [2] came to 98.5%. Regarding `O=C(NO)c1cnc(N2CCc3c([nH]c4ccccc34)C2)s1` [Example 19, N-hydroxy-2-(1,3,4,9-tetrahydro-2H-b-carbolin-2-yl)-1,3-thiazole-5-carboxamide], the “% Inhibition of HDAC @ 100 μM” value in assay [1] is 97.6%. Moreover, the inhibition at 100 µM in assay [2] was determined as 97.2%.

In the case of `O=C(/C=C/c1cnc(N2CCc3c([nH]c4ccccc34)C2)nc1)NO` [Example 20, (2E)-N-hydroxy-3-[2-(1,3,4,9-tetrahydro-2H-b-carbolin-2-yl)pyrimidin-5-yl]acrylamide], in assay [1], the “% Inhibition of HDAC @ 100 μM” value is given as 99.6%. The inhibition at 100 µM in assay [2] was 98.2%. For `O=C(CCc1cnc(N2CCc3c([nH]c4ccccc34)C2)nc1)NO` [Example 21, N-hydroxy-3-[2-(1,3,4,9-tetrahydro-2H-b-carbolin-2-yl)pyrimidin-5-yl]propanamide], in that order: 98.5% and 94%. Take `O=C(NO)c1cnc(N2CCc3[nH]c4ccc(-c5cccc(C(=O)N6CCCC6)c5)cc4c3C2)nc1` [Example 42, N-hydroxy-2-{8-[3-(pyrrolidin-1-ylcarbonyl)phenyl]-1,3,4,5-tetrahydro-2H-pyrido[4,3-b]indol-2-yl}pyrimidine-5-carboxamide]: the inhibition at 100 µM in assay [2] worked out at 88%. The same measure, in the same setting: the figure for `O=C(NO)c1cnc(N2CCc3[nH]c4ccc(-c5cccnc5)cc4c3C2)nc1` [Example 47, N-hydroxy-2-{8-(pyridin-3-yl)-1,3,4,5-tetrahydro-2H-pyrido[4,3-b]indol-2-yl}pyrimidine-5-carboxamide] is 98.1%. As to `CC(=O)Nc1ccc2[nH]c3c(c2c1)CN(c1ncc(C(=O)NO)cn1)CC3` [Example 77, N-hydroxy-2-(8-(N-acetamido)-1,3,4,5-tetrahydro-2H-pyrido[4,3-b]indol-2-yl)pyrimidine-5-carboxamide], in assay [2], the inhibition at 100 µM worked out at 98.1%. On the same count and under the same terms, in the case of `CS(=O)(=O)Nc1cccc(-c2ccc3[nH]c4c(c3c2)CN(c2ncc(C(=O)NO)cn2)CC4)c1` [Example 88, N-hydroxy-2-{8-[3-(N-methylsulfonamido)phenyl]-1,3,4,5-tetrahydro-2H-pyrido[4,3-b]indol-2-yl}pyrimidine-5-carboxamide] it was 98.4%. The same measure, in the same setting: the figure for `CN(C)Cc1cccc(-c2ccc3[nH]c4c(c3c2)CN(c2ncc(C(=O)NO)cn2)CC4)c1` [Example 92, N-hydroxy-2-{8-[3-(N,N-dimethylaminomethyl)phenyl]-1,3,4,5-tetrahydro-2H-pyrido[4,3-b]indol-2-yl}pyrimidine-5-carboxamide] is 98.9%; for `O=C(NO)c1cnc(N2CCc3[nH]c4ccc(-c5ccc(CN6CCCC6)cc5)cc4c3C2)nc1` [Example 103, N-hydroxy-2-{8-[4-(pyrrolidin-1-ylmethyl)phenyl]-1,3,4,5-tetrahydro-2H-pyrido[4,3-b]indol-2-yl}pyrimidine-5-carboxamide] it is 98.9%. The same measure, in the same setting: the figure for `O=C(NO)c1cnc(N2CCc3[nH]c4ccc(-c5ccc(CN6CCSCC6)cc5)cc4c3C2)nc1` [Example 105, N-hydroxy-2-{8-[4-(thiomorpholin-4-ylmethyl)phenyl]-1,3,4,5-tetrahydro-2H-pyrido[4,3-b]indol-2-yl}pyrimidine-5-carboxamide] is 97%. Turning to `O=C(NO)c1cnc(N2CCc3[nH]c4ccc(F)cc4c3C2)nc1` [Example 111, N-hydroxy-2-(8-fluoro-1,3,4,5-tetrahydro-2H-pyrido[4,3-b]indol-2-yl)pyrimidine-5-carboxamide], in assay [2], the inhibition at 100 µM was 97.7%. As for `O=C(NO)c1cnc(N2CCc3[nH]c4ccccc4c3CC2)nc1` [Example 114, N-hydroxy-2-(1,4,5,6-tetrahydroazepino[4,5-b]indol-3(2H)-1-yl)pyrimidine-5-carboxamide], the inhibition at 100 µM in assay [2] amounted to 99.3%. Same read-out and setting: in the case of `O=C(NO)c1cnc(N2CCc3[nH]c4ccc(F)cc4c3CC2)nc1` [Example 115, N-hydroxy-2-(9-fluoro-1,4,5,6-tetrahydroazepino[4,5-b]indol-3(2H)-1-yl)pyrimidine-5-carboxamide] it was 98.8%. The same measure, in the same setting: in the case of `O=C(NO)c1cnc(N2CCc3[nH]c4cc(-c5cccc(CN6CCCC6)c5)ccc4c3C2)nc1` [Example 121, N-hydroxy-2-{7-[3-(pyrrolidin-1-ylmethyl)phenyl]-1,3,4,5-tetrahydro-2H-pyrido[4,3-b]indol-2-yl}pyrimidine-5-carboxamide] it was 97.5%.

By inhibition is commonly meant the relative decrease from the control value, in per cent.
